Test results as given in paper PMC12627862, “Therapeutic targeting of endothelial calcium signaling accelerates the resolution of lung injury” (Signal Transduction and Targeted Therapy, 2025).
Read-outs that look alike come from different tables or passages of the source. Starred links: 1 amine or outer side, 2 acyl side, 3 side chain; linkers in the order of their positions; H or OH if unused. Positions of bridges follow the written chain, without caps; N, C: chain ends. Non-standard residues stand in square brackets, D forms with d. Residues, ends and D or L forms follow the SMILES beside them. ξ: configuration not given here. X2 = C[C@@](CCCCC=[*:3])(N[*:1])C(=O)[*:2]; Oic = O=C(O)[C@@H]1C[C@@H]2CCCC[C@@H]2N1; GABOB(3R) = O=C(C[C@@H](O)CN[*:1])[*:2]; d(tBuAla) = CC(C)(C)C[C@@H](N)C(=O)O; dVal(3-OH) = CC(C)(O)[C@@H](N)C(=O)O; tBuAla = CC(C)(C)C[C@H](N)C(=O)O; ξVal(3-OH) = CC(C)(O)C(N)C(=O)O; R5 = C=CCCC[C@@](C)(N)C(=O)O; X1 = O=C(CC(O)CN[*:1])[*:2]; 4Amb = NCc1ccc(C(=O)O)cc1

Experiments:
[1] = Lipophilicity of peptides, logP(oct/wat); format: physicochemical
How it was run: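 Shake-flask partition between n-octanol and phosphate buffer, each phase pre-saturated with the other; peptides dissolved in buffer, partitioned at several octanol:water ratios, shaken 1 h at room temperature. After equilibration both phases assayed for peptide; logP = log(octanol/water concentration ratio).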

[2] = biological target: EB3 interactions with IP3R3-GFP (Homo sapiens, UniProt Q9UPY8); test: Competitive binding: inhibition of EB3 interaction with IP3R3-GFP in vitro; format: biochemical; conditions: 250 nM
Source text: We tested the efficacy of twenty-three compounds in inhibiting EB3 interactions with IP3R3-GFP via an in vitro approach developed by us[12],[13]. […] Guided by NMR studies, we predicted the binding pose of 109 to EB3 via AutoDock Vina[13],[24],[25].

[3] = tested on: mice challenged with a PAR-1 agonist peptide; test: PAR-1 agonist peptide-induced microvascular leakage in lung; format: in vivo, mouse; conditions: i.v. 1 µmol/kg bw pretreatment; n = 5–7 mice per group
Protocol: The levels of EBA extravasation in the lungs of mice challenged with PAR-1 AP and treated with these compounds were similar to those observed in control mice treated with a control PAR-1 AP ([…]-NH2), in which the positions of the first two amino acids were reversed.
PAR-1 agonist peptide-induced microvascular leakage in lung. […] Mice treated with PAR-1 control peptide ([…]-NH2) was used as negative control. For Evan’s blue albumin extravasation, Evans’s blue-labeled albumin was administered at the same time as the PAR-1 AP. Vehicle-treated mice were used as treatment control.
Evans’ blue-labeled albumin extravasation. To evaluate vascular permeability in lung tissues, mice were injected intravenously with Evans' blue-labeled albumin (25 mg/kg) 30 minutes before the collection of lung tissues. The lungs were perfused via the right ventricle with warmed phosphate-buffered saline to remove intravascular dye, and the right atrium was excised to facilitate clearance. […] The optical density of the supernatant was measured spectrophotometrically at 620 nm (Evans Blue) and 740 nm (hemoglobin correction), with the dye content normalized to the wet weight of the lungs. Corrections for hemoglobin were made as follows: Corrected absorbance (Evans blue) = Absorbance (620) - (1.426 × Absorbance (740) + 0.03). […]

[4] = tested on: human primary microvascular lung endothelial cells (HLMVECs); test: Peptide uptake in endothelial cells; format: cell-based
Protocol: We next analyzed the cell-penetrating properties of the selected compounds, hereafter referred to as vascular therapeutics (VT). The rate of uptake of 5’6-FAM (fluorescein)-labeled compounds by human primary microvascular lung endothelial cells (HLMVECs) was determined via confocal fluorescence live-cell imaging. FAM-labeled Myr-EBIN[13] and fluorescein alone were used as positive and negative controls, respectively. The t½ uptake and maximal uptake were determined from changes in the integrated fluorescence intensity over a 30 min period (Fig. 2a and Supplementary Fig. 1a). […] Like Myr-EBIN, compounds VT-107, -108 and -109 presented the highest uptake rates of 92.5 ± 5.0%, 82.5 ± 2.8% and 94.7 ± 4.9%, respectively, whereas the linear compound VT-101 was taken up less efficiently, with an average uptake of 58.4 ± 2.7% (Fig. 2a). […] The t½ uptake, however, varied between the tested compounds (Fig. 2b). The stapled compounds presented the shortest t½ uptake, whereas the linear compounds presented the longest t½ (Fig. 2b).
Peptide uptake in endothelial cells. The rate of peptide uptake by primary human microvascular endothelial cells was measured using 5’6FAM (fluorescein)-labeled peptides and confocal fluorescence live-cell imaging, with fluorescein alone used as a negative control. Changes in intracellular fluorescence for each peptide were monitored over time, and saponin, a detergent, was added at the end of the experiment to induce full uptake of the tested peptides by endothelial cells. The fluorescence intensity inside the cells was tracked over time, and the half-time uptake (t1/2) and maximum uptake were calculated.

[5] = Stability of selected EB3 inhibitors in human blood plasma; format: in vitro ADME
Protocol: Supplementary Table 3. Stability of selected EB3 inhibitors in human blood plasma. The indicated inhibitors were incubated with human plasma at 37 °C and samples were taken at the indicated time points. Plasma proteins were precipitated with ice-cold perchloric acid (60%); the concentration of compounds was measured in supernatant using a liquid chromatography-tandem mass spectrometry (LC-MS/MS). See also Figures 1 and 2.

Chain of EB3 interactions with IP3R3-GFP (Q9UPY8 whole entry): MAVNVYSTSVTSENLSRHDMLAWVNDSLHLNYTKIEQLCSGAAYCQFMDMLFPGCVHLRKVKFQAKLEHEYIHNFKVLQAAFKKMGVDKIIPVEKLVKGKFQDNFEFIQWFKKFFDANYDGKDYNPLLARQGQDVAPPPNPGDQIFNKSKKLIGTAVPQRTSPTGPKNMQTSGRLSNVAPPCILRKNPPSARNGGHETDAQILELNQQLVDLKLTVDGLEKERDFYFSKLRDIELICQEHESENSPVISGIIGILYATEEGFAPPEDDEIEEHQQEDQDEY

Compound | logD ([1]; shake-flask n-octanol/phosphate buffer, mutually saturated, shaken 1 hour at room temperature, read-out: Log P (Octanol/Water)) | inhibition at 0.25 µM [2] | PAR-1-mediated capillary leakage in the lung (EBA extravasation) [3] | uptake, percentage of the maximal values obtained following saponin treatment ([4]; 5’6-FAM-labeled compounds, HLMVECs, confocal live-cell imaging over 30 min, mean ± SEM, n = 16–45 cells per group) | half-time uptake t1/2 ([4]; 5’6-FAM-labeled compounds, HLMVECs, confocal live-cell imaging, n = 3 independent experiments) | penetration of the cell membrane ([4]; 5’6-FAM-labeled compounds, HLMVECs, no cell internalization signal) | remaining at 1.5 h ([5]; human plasma, 37 °C, 1.5 hr, perchloric acid (60%) precipitation, LC-MS/MS, read-out: compound remaining in human plasma) | remaining at 20 h ([5]; human plasma, 37 °C, 20 hr, perchloric acid (60%) precipitation, LC-MS/MS, read-out: compound remaining in human plasma) | logD [1] | half-time uptake t1/2 [4] | penetration of the cell membrane [4] | remaining at 1.5 h ([5]; human, plasma) | remaining at 20 h ([5]; human, plasma)
CC(C)(C)C[C@@H]1NC(=O)[C@](C)(NC(=O)c2ccc(CNC(=O)[C@H](N)C(C)(C)O)cc2)CCC/C=C\CCCC[C@@](C)(C(=O)N[C@H](CC(C)(C)C)C(=O)O)NC(=O)CC(O)CNC(=O)[C@@H]2C[C@@H]3CCCC[C@@H]3N2C1=O (stereo partly drawn) [compound 108, (2R)-2-((8S,18R,21S,23aS,27aS,28aS,Z)-18-(4-(((R)-2-amino-3-hydroxy-3-methylbutanamido)methyl)benzamido)-4-hydroxy-8,18-dimethyl-21-neopentyl-1,6,19,22-tetraoxo-1,2,3,4,5,6,7,8,9,10,11,12,15,16,17,18,19,20,21,22,23a,24,25,26,27,27a,28,28a-octacosahydro-[1,4,7,12]tetraazacyclotetracosino[4,5-a]indole-8-carboxamido)-4,4-dimethylpentanoic acid] (H-[dVal(3-OH)][4Amb][R5][tBuAla][Oic][X1][X2][d(tBuAla)]-OH; staple (Z) 3-7) | 0.46 | 55% | completely blocked | 82.5 ± 2.8% | 0.36 ± 0.12 min | able to penetrate the cell membrane without the addition of a cell internalization signal | 80% | 65% | – | – | – | – | –
CC(C)(C)C[C@@H]1NC(=O)C[C@@H](O)CNC(=O)[C@@H]2C[C@@H]3CCCC[C@@H]3N2C(=O)[C@H](CC(C)(C)C)NC(=O)c2ccc(cc2)CNC(=O)C(C(C)(C)O)NC(=O)[C@@H](Cc2ccccc2)NC1=O (stereo partly drawn) [compound 109, (1^2S,1^3aS,1^7aS,3S,10S,13R,16S,20R)-13-benzyl-20-hydroxy-10-(2-hydroxypropan-2-yl)-3,16-dineopentyl-1^2,1^3,1^3a,1^4,1^5,1^6,1^7,1^7a-octahydro-1^1H-4,8,11,14,17,22-hexaaza-1(1,2)-indola-6(1,4)-benzenacyclotricosaphane-2,5,9,12,15,18,23-heptaone.] (cyclo([4Amb][tBuAla][Oic][GABOB(3R)][tBuAla][dF][ξVal(3-OH)])) | – | 58% | completely blocked | – | – | – | – | – | 0.73 | 3.42 ± 0.01 min | able to penetrate the cell membrane without the addition of a cell internalization signal | 90% | 91%
